Experimental data as given in ChEMBL document CHEMBL1201862, “PubChem BioAssay data set” (2004).
Calls of active or inactive are those of the source.

Legend:
[1] = target: Endoplasmic reticulum aminopeptidase 1 (Homo sapiens, UniProt Q9NZ08); assay: ERAP1 aminopeptidase inhibitors, dose response, biochemical, cherry-pick, set 2, plate reader (AID 743314)
[2] = A cytotoxicity screen of small molecule inhibitors of the PhoP region in Salmonella typhi identified in the primary screen. [Related pubchem assays: 1850, 1864, 1985 ]; format: functional
Vero = assay: Vero cell toxicity, dose response, cytotoxicity control, plate reader, cherry-pick samples (AID 687020); format: functional, cell-based; details: Chlorocebus sabaeus
[3] = NIH:OVCAR-3 ovarian cancer cell cytotoxicity, dose response, PAX8 inhibitor project, plate reader, dry powder samples (AID 743044); format: functional, cell-based
[4] = A2780 ovarian cancer cell cytotoxicity, dose response, cytotoxicity control, plate reader, dry powder samples (AID 743046); format: functional, cell-based
[5] = non-specific cell cytotoxicity, dose response, cytotoxicity control for PAX8 inhibitor project, plate reader, dry powder samples (AID 743021); format: functional, cell-based
Paired box protein Pax-8 = Paired box protein Pax-8 (Homo sapiens, UniProt Q06710); assay: inhibitors of PAX8-driven TPO luciferase reporter, dose response, RMG-I cells, cherry-pick (AID 687027); format: functional, cell-based;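 note: luciferase reporter driven by Pax8 target thyroperoxidase promoter measured by SteadyGlo luminescence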
[6] = inhibitors of CMV-promoter luciferase reporter, dose response, counter-screen for Pax8 inhibitor project, cell-based, HEK293, luminescence, dry powder (AID 743020); format: functional
[7] = target: Fructose-bisphosphate aldolase (Mycobacterium tuberculosis, UniProt P9WQA3); assay: Fluorescence-based biochemical high throughput dose response assay for inhibitors of the fructose-bisphosphate aldolase (FBA) of M. tuberculosis.; format: functional
Beta-lactamase [8] = target: T1, Beta-lactamase (Pseudomonas aeruginosa, UniProt Q79MP6); assay: […] counterscreen for selective VIM-2 inhibitors: dose response biochemical high throughput screening assay to identify inhibitors of IMP-1 metallo-beta-lactamase.
Beta-lactamase [9] = target: T1, Beta-lactamase; assay: IMP-1 metallo-beta-lactamase inhibitors, dose response, selectivity assay for VIM-2 inhibitor project, biochemical, epi-absorbance (AID 1920)
Beta-lactamase [10] = target: Beta-lactamase (Salmonella choleraesuis (strain SC-B67), UniProt Q5J463); assay: Epi-absorbance-based counterscreen for selective VIM-2 inhibitors: dose response biochemical high throughput screening assay to identify inhibitors of TEM-1 serine-beta-lactamase.
[11] = Late stage assay provider results from the probe development effort to identify inhibitors of the Plasmodium falciparum M17 Leucine Aminopeptidase (M17LAP): radiolabel-based cell-based dose response assay to identify compounds that inhibit P. falciparum growth in RBCs Set 2.; format: functional
[12] = target: Heat shock protein HSP 90-alpha (Homo sapiens, UniProt P07900); assay: Luminescence-based dose response biochemical high throughput screening assay for inhibitors of the Heat Shock Protein 90 (HSP90). [Related pubchem assays: 1831 (Summary AID.), 1846 (Confirmation screen.), 1789 (Primary screen.)]
[13] = Late stage assay provider results from the probe development effort to identify selective inhibitors of heat shock protein 90 (HSP90): Absorbance-based cell proliferation assay in SKBR3 cells.; format: functional; details: SK-BR-3
[14] = Late stage assay provider results from the probe development effort to identify selective inhibitors of heat shock protein 90 (HSP90): Absorbance-based cell proliferation assay in MCF7 cells.; format: functional
[15] = Luminescence Cell-Based Dose Retest to Confirm Inhibitors of Cancer Stem Cells. [Related pubchem assays (depositor defined):AID2717, AID2721]; format: functional; details: Homo sapiens
[16] = Counterscreen for antagonists of the human trace amine associated receptor 1 (hTAAR1): Fluorescence-based cell-based high throughput dose response assay to identify nonselective Ga16 antagonists.; format: functional
[17] = Counterscreen for […] of the human trace amine associated receptor 1 (TAAR1): Fluorescence-based cell-based high throughput dose response assay to identify nonselective Ga16 agonists.; format: functional
[18] = target: Disintegrin and metalloproteinase domain-containing protein 17 (Homo sapiens, UniProt P78536); assay: ADAM17 protease inhibitors, dose response, counter-screen for ADAM10 exosite inhibitor project, biochemical, quenched FRET substrate (AID 743253)
[19] = ADAM10 inhibitors, peptide cleavage, dose response, biochemical, QFRET (AID 743254);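 note: ADAM10 enzyme with the DM2 quenched FRET peptide as substrate; EDANS fluorescence gain as the protease cuts the substrate; inhibitor potency against ADAM10 proteolytic activity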
[20] = HepG2 cell cytotoxicity, dose response, cytotoxicity control, ATP luminescence, cherry-pick, activator set 2 (AID 1053143); format: functional, cell-based
[21] = target: Dual specificity tyrosine-phosphorylation-regulated kinase 1A (Rattus norvegicus, UniProt Q63470); format: biochemical, Homo sapiens
cells [22] = format: functional, cell-based; details: HEK-CNG
Galanin receptor type 3 = Galanin receptor type 3 (Homo sapiens, UniProt O60755); assay: Fluorescence-based cell-based primary high throughput dose response assay to identify antagonists of the Galanin Receptor 3 (GalR3).; format: functional
Major prion protein = Major prion protein (Homo sapiens, UniProt P04156); format: functional, cell-based
cells [23] = assay: cells
[24] = cytotoxicity in OVCAR8 ovarian cancer cells, dose response, PAX8 project, cell-based, plate reader, dry powder samples (AID 743197); format: functional; details: OVCAR-8
[25] = IGROV1 ovarian cancer cell cytotoxicity, dose response, PAX8 inhibitor project, plate reader, dry powder samples (AID 743043); format: functional, cell-based; details: IGROV-1
SN12K1 = assay: cells; format: functional; details: Homo sapiens
[26] = inhibitors of firefly luciferase expression or activity, dose response, H4 neuroglioma cells, luminescence (AID 1990); format: functional, cell-based
P388 = assay: cells; format: functional; details: Mus musculus
[27] = CFTR ΔF508 corrector activity in bronchial cells, dose response, human bronchial epithelial cells, plate reader, cherry-pick, two tests (AID 743267); format: functional, cell-based
P388/ADR = assay: cells; format: functional; details: Mus musculus
[28] = cytotoxicity in HEK-293T cells, dose response, cytotoxicity control for TCR NF-kB inhibitor project, luminescence, T-cell screen hits (AID 489026); format: functional, cell-based;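 note: cells exposed to compound about 14 hours before the viability readout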
[29] = luciferase reporter signal reduction – luminescence, H4-C neuroglioblastoma cells, dose response (AID 2458); format: functional, cell-based;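 note: H4 neuroglioblastoma cells stably carrying a luciferase reporter gene fusion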
cells [30] = format: functional, cell-based
[31] = inhibitors of SNCA 5'UTR-driven translation, confirmation, luminescence, H4 neuroglioblastoma cells, dose confirmation (AID 2454); format: functional, cell-based;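 note: H4 neuroglioblastoma cells carrying an alpha-synuclein 5'UTR luciferase reporter; potency for inhibition of the luciferase signal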
[32] = inhibitors of SNCA 5'UTR-driven reporter translation, confirmation, H4 neuroglioma cells, luminescence (AID 1988); format: functional, cell-based

Q: Which AC50 [1] does the source give for `O=C(NCC1CC1)[C@@H]1[C@@H](CO)[C@@H]2Cn3c(ccc(/C=C/c4ccccc4)c3=O)[C@H]1N2C(=O)C1CC1` here?
A: Its AC50 is 14.7 µM (active).

Q: For `O=C(Nc1ccc(Cc2ccncc2)cc1)c1cccs1`, which EC50 [2] is on record?
A: The EC50 was > 50 µM (active).

Q: What about the AC50 (Vero) of the same compound?
A: The AC50 was 26.3 µM (active).

Q: For `C[C@@H]1CN([C@@H](C)CO)S(=O)(=O)c2ccc(C#CC3CCCC3)cc2O[C@H]1CN(C)Cc1cccnc1`, which AC50 [3] is on record?
A: Its AC50 is 25.7 µM (active).

Q: What about the AC50 [4] of the same compound?
A: Its AC50 is 15 µM (active).

Q: What about the AC50 [5] of the same compound?
A: The AC50 was 57.1 µM (active).

Q: What about the AC50 (Paired box protein Pax-8) of the same compound?
A: The AC50 was 8.33 µM (active).

Q: What about the AC50 [6] of the same compound?
A: The AC50 was 47.5 µM (active).

Q: For `C=CCn1c(-c2ccc(N)cc2)nc2ccccc21`, which IC50 [7] is on record?
A: The IC50 was > 0.37 µM (active).

Q: Which IC50 (Beta-lactamase [8]) does the source give for `Cc1c(C)c2c(OCC(=O)N[C@@H](C)C(=O)O)cc3c(c2oc1=O)CCC(C)(C)O3` here?
A: The IC50 was > 59.6 µM (inactive).

Q: And the IC50 (Beta-lactamase [9])?
A: The IC50 was > 59.6 µM (inactive).

Q: And the IC50 (Beta-lactamase [10])?
A: Its IC50 is > 59.6 µM (inactive).

Q: Which IC50 [11] does the source give for `O=C(Cc1ccc(OCc2ccccc2)cc1)NO` here?
A: Its IC50 is 4.7 µM (active).

Q: For `COC(=O)c1ccc2nc(NC(=O)C3CC3)sc2c1`, which IC50 [12] is on record?
A: Its IC50 is 3.82 µM (active).

Q: And the IC50 [13]?
A: The IC50 was > 100 µM (inactive).

Q: What about the IC50 [14] of the same compound?
A: The IC50 was 49.2 µM (inactive).

Q: For `Cc1cc(Br)c(OCc2ccc(C(=O)N/N=C/c3ccc[nH]3)cc2)c(Br)c1`, which AC50 [15] is on record?
A: Its AC50 is 0.228 µM (active).

Q: What about the IC50 [16] of the same compound?
A: The IC50 was > 29.9 µM (inactive).

Q: What about the EC50 [17] of the same compound?
A: Its EC50 is > 29.9 µM (inactive).

Q: What about the AC50 [5] of the same compound?
A: The AC50 was 59.4 µM (active).

Q: And the AC50 (Paired box protein Pax-8)?
A: The AC50 was 0.693 µM (active).

Q: With `O=C(NCCc1nc2ccccc2[nH]1)/C(=C/c1ccc2c(c1)OCO2)NC(=O)c1ccc(Cl)cc1Cl` as the compound, how does the IC50 [18] read?
A: The IC50 was > 69.5 µM (inactive).

Q: What about the IC50 [19] of the same compound?
A: The IC50 was > 69.5 µM (inactive).

Q: Which AC50 [20] does the source give for `C=CS(=O)(=O)c1c2cc(OC)ccc2nc2ccc(OC)cc12` here?
A: The AC50 was 25.4 µM (active).

Q: And the AC50 [21]?
A: The AC50 was 0.682 µM (active).

Q: Which EC50 (cells [22]) does the source give for `O=c1c(Cl)c(NCC2CCCO2)cnn1C12CC3CC(CC(C3)C1)C2` (stereo not drawn) here?
A: The EC50 was > 29.9 µM (inactive).

Q: What about the IC50 (Galanin receptor type 3) of the same compound?
A: The IC50 was > 29.9 µM (inactive).

Q: What does the source list for `O=C(O)c1cc(-c2cccnc2)nc2ccc(Br)cc12`?
A: IC50 (Major prion protein): 13.8 µM (inactive); IC50 (cells [23]): > 138 µM (inactive)

Q: With `C[C@@H]1CN([C@@H](C)CO)C(=O)c2cc(NC(=O)Nc3ccc(C(F)(F)F)cc3)ccc2O[C@@H](C)CCCCO[C@H]1CN(C)Cc1ccncc1` as the compound, how does the AC50 [3] read?
A: Its AC50 is 29.5 µM (active).

Q: And the AC50 (Paired box protein Pax-8)?
A: Its AC50 is 8.41 µM (active).

Q: What about the AC50 [24] of the same compound?
A: Its AC50 is 53.8 µM (active).

Q: What about the AC50 [25] of the same compound?
A: Its AC50 is 53.7 µM (active).

Q: What does the source list for `CC(=O)O[C@H]1C(=O)[C@@]2(C)[C@H]([C@H](OC(=O)c3ccccc3)[C@]3(O)C[C@H](OC(=O)[C@H](O)[C@@H](NC(=O)c4ccccc4)c4ccccc4)C(C)=C1C3(C)C)[C@]1(OC(C)=O)CO[C@@H]1C[C@@H]2O` [PACLITAXEL]?
A: GI50 (SN12K1): 0.00327 µM (active); EC50 [26]: 10.6 µM (active); GI50 (P388): 0.00569 µM (active); AC50 [27]: 3.59 µM (active); GI50 (P388/ADR): 0.605 µM (active); IC50 [28]: > 80 µM (inactive); EC50 [29]: 0.039 µM (active); EC50 (cells [30]): 0.086 µM (active); EC50 [31]: 0.069 µM (active); EC50 [32]: < 0.1 µM (active)
